Consider one compound from paper PMC7994712 (Nature Communications, 2021).

One series addresses T1, SSTR1 (Homo sapiens, UniProt P30872).
T1 construct: host or cells: CHO-K1
As to the kind of experiment: Radio-ligand binding assay, SSTR1. On the procedure: (§1) Graphical and tabular representation of the percentage inhibition of specific binding, as IC50 (nM) binding values for the analogues against the five SSTR1-SSTR5 is represented in Supplementary Fig. 1b and Supplementary Table 1. […] IC50 values were determined by a non-linear, least squares regression analysis using Prism 9 (GraphPad Software, USA), using the Dose-response inhibition (three-parameters) model. […]
(§2) (SSTR1-SSTR5), using a Radio-ligand Binding Assay (Supplementary Figure 1b). Cells were incubated in HEPES buffer pH 7.4 with the new analogues of Cortistatin at 10 different concentrations in a range […]
(§3) specifically bound (performed at Eurofins Panlabs, Inc.). The radioactivity obtained in the absence of SST14 is considered as total binding and that obtained in the presence of 1 µM of SST14 is considered as nonspecific binding. Specific binding was considered as the difference between total and nonspecific.
(§4) Biochemical assay results are presented as the percent inhibition of specific bindin g (% inhib ition) as a […]
(§5) part of each binding assay with the five (SSTR1 -SS T R5 ) . I C50 values were determined by a non-linear, least squares regression analysis using Prism 9 (GraphPad Software, USA), using the Dose -response inhibit ion (t hree-parameters) model.

The target of another series is T2, SSTR2 (Homo sapiens, UniProt P30874).
T2 construct: host or cells: CHO-K1
T2 sequence (P30874 whole entry): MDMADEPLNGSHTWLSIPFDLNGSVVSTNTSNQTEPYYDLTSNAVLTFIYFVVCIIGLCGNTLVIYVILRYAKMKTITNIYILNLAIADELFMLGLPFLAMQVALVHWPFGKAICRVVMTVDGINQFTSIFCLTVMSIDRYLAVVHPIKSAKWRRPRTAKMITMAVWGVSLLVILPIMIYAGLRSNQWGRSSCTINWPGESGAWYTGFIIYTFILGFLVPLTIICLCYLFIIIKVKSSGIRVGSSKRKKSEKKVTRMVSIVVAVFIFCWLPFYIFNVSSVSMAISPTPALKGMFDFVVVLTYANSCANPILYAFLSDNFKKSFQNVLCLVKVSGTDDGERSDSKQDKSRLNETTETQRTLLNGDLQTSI
Nature of the series: Radio-ligand binding assay, SSTR2. On the procedure:
as §1, §2, §3, §4, §5

The next series concerns the target T3, SSTR3 (Homo sapiens, UniProt P32745).
T3 construct: host or cells: CHO-K1
As to the kind of experiment: Radio-ligand binding assay, SSTR3. On the procedure:
as §1, §2, §3, §4, §5

In a further series the target is T4, SSTR5 (Homo sapiens, UniProt P35346).
T4 construct: host or cells: CHO-K1
T4 sequence (P35346 whole entry): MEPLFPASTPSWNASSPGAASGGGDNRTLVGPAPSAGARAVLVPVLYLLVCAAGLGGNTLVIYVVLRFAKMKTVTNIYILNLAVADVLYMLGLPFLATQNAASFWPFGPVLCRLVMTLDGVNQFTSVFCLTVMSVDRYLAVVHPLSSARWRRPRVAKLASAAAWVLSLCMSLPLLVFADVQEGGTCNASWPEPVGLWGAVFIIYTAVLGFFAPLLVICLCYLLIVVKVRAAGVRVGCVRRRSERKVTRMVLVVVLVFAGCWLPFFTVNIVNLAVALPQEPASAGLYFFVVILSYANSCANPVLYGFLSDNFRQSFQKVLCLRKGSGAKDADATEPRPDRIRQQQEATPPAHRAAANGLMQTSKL
Nature of the series: Radio-ligand binding assay, SSTR5. On the procedure: as §1, §2, §3, §4, §5

Another series is described as follows: in vitro. The class given is cell-based. Particulars: mouse, peritoneal macrophages stimulated with LPS, Viability of Macrophages (%, vs. Initiation of culture). On the procedure:
Mouse peritoneal macrophages were cultured in medium (unstimulated) or stimulated with LPS (1 μg/ml) in the absence or presence of Analogue 5 (100 nM). Mouse spleen cells were cultured in medium alone (unstimulated) or stimulated with anti -CD3 a ntib odies (2 μg/ml) in the absence or presence of analogue 5 (100 nM). After 24 hours (macrophages) or 48 hours (spleen cells) of culture, cell viability and apoptosis were determined. The percentage of cell viability relative to the initiation of cell c ult ure was determined using AlamarBlue assay (Thermo Fisher Scientific). The percentage of apoptotic cells was determined by flow cytometric analysis of Annexin Vpositive 7-amino-actinomycin Dnegative cell population (R&D Systems). Data are the mean ± SEM of 5 independe nt cultures performed in duplicates. […]
Treatments were administered in a curative regime as described in Figure 4 and sera were collected 10 days after TNBS infusion. n=8 mice/group. […] Statistical differences between groups were calculated usi ng unpa ired two -tailed Student’s t-test. ****p<0.0001 versus TNBS+saline […]
Total RNA was isolated from colon sections obtained at day 10 after TNBS injection following the manufacturer’s protocol (Tripure, Roche). […] SYBER green quantitative PCR (SensiFast Sybr No-Rox mix, Bioline) was performed as described in the […]

A short description of series [1]: In vitro stability of peptides in human plasma (half-life in serum). Particulars: serum half-life of analogue 5 vs native CST.
Protocol: The peptides were dissolved in water at a concentration of 6 mg/mL and warmed up to 37 °C. Human plasma was obtained as a lyophilised solid (K3 EDTA Plasma, BBI solutions, code S112-1), reconstituted with sterile 0.9% sodium chloride solution and stored at −20 °C. Human plasma was thawed and incubated at 37 °C before use.
The peptides were incubated in 90% human plasma at 37 °C for different times and then precipitated with two volume equivalents of methanol. […] The supernatant was filtered with a 0.45-µm PVDF filter and analysed in triplicate by RP-HPLC using an isocratic method (eluent A = 0.1%TFA in water; eluent B = 0.07%TFA in ACN, column = Kromasil C8, 100 Å, 5 µm, 250 × 4.6 mm, flow = 1 mL/min, wavelength = 220 nm, injection volume = 20 µL, Tª = 60 °C). The disappearance of the peptide was determined in relation to the area of the initial time for calculating its half-life.

Molecules are shown by their SMILES.

T3 sequence (P32745 whole entry): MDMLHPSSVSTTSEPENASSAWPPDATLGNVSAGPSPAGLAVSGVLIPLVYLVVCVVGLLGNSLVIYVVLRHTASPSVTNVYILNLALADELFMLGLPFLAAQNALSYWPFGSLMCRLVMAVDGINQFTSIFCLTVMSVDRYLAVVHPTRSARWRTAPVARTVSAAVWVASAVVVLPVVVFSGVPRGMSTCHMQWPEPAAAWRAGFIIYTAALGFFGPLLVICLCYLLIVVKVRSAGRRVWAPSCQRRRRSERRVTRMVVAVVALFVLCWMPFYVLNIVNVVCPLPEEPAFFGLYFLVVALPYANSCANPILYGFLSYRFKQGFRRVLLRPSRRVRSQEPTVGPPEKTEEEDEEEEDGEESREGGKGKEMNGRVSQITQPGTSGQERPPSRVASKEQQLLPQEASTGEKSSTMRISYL
T1 sequence (P30872 whole entry): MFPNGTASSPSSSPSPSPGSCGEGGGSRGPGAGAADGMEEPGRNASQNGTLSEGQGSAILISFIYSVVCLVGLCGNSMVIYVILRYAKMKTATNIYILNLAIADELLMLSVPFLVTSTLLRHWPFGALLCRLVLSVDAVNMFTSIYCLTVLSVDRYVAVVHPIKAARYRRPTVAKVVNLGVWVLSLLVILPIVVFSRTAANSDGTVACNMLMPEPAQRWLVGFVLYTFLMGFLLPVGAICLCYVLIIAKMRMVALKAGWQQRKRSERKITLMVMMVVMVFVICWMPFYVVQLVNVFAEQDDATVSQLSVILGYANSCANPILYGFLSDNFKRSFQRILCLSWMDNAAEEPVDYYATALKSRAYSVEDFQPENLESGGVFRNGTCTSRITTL

For orientation: IC50 means the concentration at which inhibition is half-maximal. Lower therefore signals greater potency in that assay. By viability is commonly meant the share of living cells, or the viability signal relative to a control. Read a high viability as less harm to the cells. As for `CCCCCCCC(=O)N1CCC[C@H]1C(=O)N[C@H]1CSSC[C@@H](C(=O)N[C@@H](CCCCN)C(=O)O)NC(=O)[C@H](CO)NC(=O)[C@H]([C@@H](C)O)NC(=O)[C@H](Cc2ccccc2)NC(=O)[C@H]([C@@H](C)O)NC(=O)[C@H](CCCCN)NC(=O)[C@@H](Cc2c[nH]c3ccccc23)NC(=O)[C@H](Cc2ccccc2)NC(=O)[C@H](Cc2c(C)cc(C)cc2C)NC(=O)[C@H](CC(N)=O)NC(=O)[C@H](CCCCN)NC1=O` [A5], the IC50 on SSTR1 stood at 47.3 nM; on SSTR2, 35 nM; on SSTR3, 5.1 nM; at SSTR5 it was 1.12 nM. Besides, the viability at 24 h, 0.1 µM in the series “in vitro” was 93.2%. Also, the “increase in stability with respect to the native neuropeptide” value in series [1] is listed as 10 fold.
